Values of other authors as cited in patent US9974861B2, “Peptide slow-release formulations” (CAMURUS AB, priority 2007, dated 2018).

| Compound | Affinity of SSTR1-SSTR5 (SSTRs (SSTR1-SSTR5); five known types of SSTRs) | Biological half-life (natural hormone) | Selectivity for SSTR2 and SSTR5 (SSTRs (SSTR1-SSTR5)) | Terminal half-life (in vivo) |
| --- | --- | --- | --- | --- |
| Ala-Gly-Cys-Lys-Asn-Phe-Phe-Trp-Lys-Thr-Phe-Thr-Ser-Cys [SST-14] | equally high affinity | 1-3 minutes |  |  |
| C[C@@H](O)[C@@H]1NC(=O)[C@H](CCCCN)NC(=O)[C@@H](Cc2c[nH]c3ccccc23)NC(=O)[C@H](Cc2ccccc2)NC(=O)[C@@H](NC(=O)[C@H](N)Cc2ccccc2)CSSC[C@@H](C(=O)N[C@H](CO)[C@@H](C)O)NC1=O [Octreotide, D-Phe-Cys-Phe-D-Trp-Lys-Thr-Cys-Thr-ol (2-7 disulphide bridge)] |  |  | high selectivity | around 1.7 hours |
